Laboratory results published in patent US11413278B2, “Compounds and methods for promoting stress resistance” (priority 2015, dated 2022).
Read-outs that look alike come from different tables or passages of the source.

How the values were obtained:
[1] = tested on: WI-38 cells; experiment: Long-term effects on cell viability (5 days, ATP; morphology, PI imaging); type: cell-based; conditions: 10 μM; for Luminescence signal for ATP measurement, day-1 Average / Luminescence signal for ATP measurement, day-2 Average / Luminescence signal for ATP measurement, day-3 Average / Luminescence signal for ATP measurement, day-4 Average / Luminescence signal for ATP measurement, day-5 Average / viability at 10 µM: Batch 1; for Luminescence signal for ATP measurement, day-1 Average / Luminescence signal for ATP measurement, day-2 Average / Luminescence signal for ATP measurement, day-3 Average / Luminescence signal for ATP measurement, day-4 Average / Luminescence signal for ATP measurement, day-5 Average: n = 6, day-0 luminescence = 320956 ± 24708; for viability at 10 µM: Homo sapiens, WI-38, 120 h, DMSO ctrl = 100.0%, read-out: ATP luminescence by day-5 normalized; for Luminescence signal for ATP measurement, day-5 Average / viability at 10 µM: day-5; for O = Potential toxicity / Q = Potential toxicity: human, 5 days;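 for Luminescence signal for ATP measurement, day-2 Average: compounds at 10 µM with ATP read daily over 5 days of treatment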;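 for Luminescence signal for ATP measurement, day-3 Average: compounds at 10 µM with ATP read daily over 5 days of treatment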;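 for Luminescence signal for ATP measurement, day-4 Average: compounds at 10 µM with ATP read daily over 5 days of treatment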;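 for Luminescence signal for ATP measurement, day-5 Average: compounds at 10 µM with ATP read daily over 5 days of treatment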
[2] = tested on: PC12 cells expressing poly(Q)103-Htt-EGFP; experiment: Poly(Q) toxicity & viability analysis (cellular model of Huntington's disease); type: cell-based, rat; conditions: for M = Huntington's poly-Q toxicity attenuation: score; for K = Huntington's poly-Q toxicity attenuation: summary score
Method in brief: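 Readout is CellTiter-Glo ATP content measured after 48 hrs. Cells are a PC12 line stably expressing inducible poly(Q)103-Htt-EGFP, where induction produces toxic aggregates.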

[3] = tested on: phosphorylated γH2A.X and TP53BP1; experiment: DNA damage marker analysis (immuno-staining); conditions: for activity at 10 µM: Homo sapiens, WI-38, 24 h; for P = Potential DNA-damaging / R = Potential DNA damaging: human, 24 h
Method in brief: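 Immunofluorescence read-out for phospho-γH2A.X (Ser-139) and phospho-TP53BP1 (Ser-1778), with DAPI nuclear stain and automated imaging at 10×. WI-38 cells (~8,000 per well) were exposed to small molecules for 24 h after 24 h of culture, with doxorubicin (300 nM, 24 h) or H2O2 (700 μM, 3 h) as positive damage controls.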

[4] = tested on: WI-38 cells; conditions: for No H2O2 stress treatment, at 10 uM (fold change): normalized ATP measurement; for Assay 1: H2O2-resistant: YES/NO, if NO, possibly due to repeated freezing/thawing of stocks
[5] = tested on: WI-38 cells; experiment: MMS resistance assay; type: cell-based, human; conditions: for fold induction at 10 µM: Homo sapiens, 12 h, normalized ATP measurement; for Assay 3: MMS-resistant / Assay 5: Triple resistant: YES/NO; for Assay 3: MMS-resistant: * indicates partial; for Assay 5: Triple resistant: H2O2, cadmium and MMS
Method in brief: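 Resistance to CdCl2 or MMS stress (12 h exposure) was scored in WI-38 fibroblasts pretreated with compound at 0.25–20 μM final, five doses, technical triplicates. MMS plates had compound added 24 h before MMS, after a shift to serum-free DMEM+2% BSA. Significance came from a global variance t-test over two independent runs.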

[6] = read-out: Experiment 1, H2A.X-P DNA damage foci staining (no H2O2 stress treatment), at 10 uM
[7] = read-out: Experiment 2, H2A.X-P DNA damage foci staining (no H2O2 stress treatment), at 10 uM
[8] = read-out: Experiment 2, H2A.X-P DNA damage foci staining (under H2O2 stress treatment), at 10 uM
[9] = read-out: Experiment 2, TP53BP1-P DNA damage foci staining (no H2O2 stress treatment), at 10 uM
[10] = read-out: Experiment 2, TP53BP1-P DNA damage foci staining (under H2O2 stress treatment), at 10 uM
[11] = WI-38 cells, 10 μM, (*) = compromised ability to protect cells from H2O2, could be due to stability issue
[12] = asterisks indicate the loss of the ability to protect cells from H2O2 over time
[13] = derived from dose response curves, 0.6-20 uM, H2O2-resistance of WI-38 cells
[14] = read-out: Est. ED50, dose response 0.6-20 μM, H2O2-resistance
[15] = Exp. 1, WI-38 cells, read-out: Exp. 1, under MMS stress treatment, at 10 uM (fold change)
[16] = Exp. 2, WI-38 cells, read-out: Exp. 2, under MMS stress treatment, at 10 uM (fold change)
[17] = score in summary of 38 core set hits

Structure (SMILES)	Luminescence signal for ATP measurement, day-1 Average [1]	Luminescence signal for ATP measurement, day-2 Average [1]	Luminescence signal for ATP measurement, day-3 Average [1]	Luminescence signal for ATP measurement, day-4 Average [1]	Luminescence signal for ATP measurement, day-5 Average [1]	viability at 10 µM [1]	O = Potential toxicity [1]	Q = Potential toxicity [1]	M = Huntington's poly-Q toxicity attenuation [2]	K = Huntington's poly-Q toxicity attenuation [2]	activity at 10 µM [3, 6]	activity at 10 µM [3, 7]	activity at 10 µM [3, 8]	activity at 10 µM [3, 9]	activity at 10 µM [3, 10]	P = Potential DNA-damaging [3]	R = Potential DNA damaging [3]	H2O2-resistant [4, 11]	No H2O2 stress treatment, at 10 uM (fold change) ([4]; WI-38 cells)	Assay 1: H2O2-resistant [4]	further results
O=C(c1ccc([N+](=O)[O-])o1)N1CCc2ccccc21 [O13]	546070	704210	806718	947030	992715	96.7%	0	0	0	0	145%	98.3%	152%	238%	673%	0	0	YES	1.09 fold change	YES	H2O2-resistant [4, 12]: YES; EC50 [4, 13]: 10.1 µM; EC50 [4, 14]: 10.1 µM; fold induction at 10 µM [5, 15]: 1.11; fold induction at 10 µM [5, 16]: 2.24; Assay 3: MMS-resistant [5]: YES; Assay 5: Triple resistant [5]: YES; B = MMS resistant [5, 17]: 0; B = MMS resistant ([5]; summary score): 1; D = Triple resistant ([5]; summary score): 2
Oc1ncnc2sc3c(c12)CCC3 [O14]	581665	685103	819423	1074238	1052551	102%	0	0	0	0	116%	85.3%	221%	159%	254%	0	0	YES	1.11 fold change	YES	H2O2-resistant [4, 12]: YES; EC50 [4, 13]: 12.5 µM; EC50 [4, 14]: 12.5 µM; fold induction at 10 µM [5, 15]: 0.84; fold induction at 10 µM [5, 16]: 3.45; Assay 3: MMS-resistant [5]: YES; Assay 5: Triple resistant [5]: YES; B = MMS resistant [5, 17]: 0; B = MMS resistant ([5]; summary score): 1; D = Triple resistant ([5]; summary score): 2
CCCN1C/C(=C\c2ccc(F)cc2)C(=O)/C(=C/c2ccc(F)cc2)C1 [O15]	426828	601153	634740	904970	761533	74.2%	1	0	0	0	90%	184%	58.4%	48.3%	251%	0	0	YES (*)	0.98 fold change	YES	H2O2-resistant [4, 12]: YES (*); EC50 [4, 14]: 20 µM; fold induction at 10 µM [5, 15]: 0.16; fold induction at 10 µM [5, 16]: 0.38; B = MMS resistant [5, 17]: 0; B = MMS resistant ([5]; summary score): 0; D = Triple resistant ([5]; summary score): 0
